According to ChEMBL document CHEMBL4229486, “Design and synthesis of novel thiadiazole-thiazolone hybrids as potential inhibitors of the human mitotic kinesin Eg5” (Bioorg Med Chem Lett, 2018):
Activity calls are given as the source filed them. No cut-off for these calls is given here.

What was measured:
[1] = molecular target: T1, Kinesin-like protein KIF11 (Homo sapiens, UniProt P52732); test: Inhibition of MT-stimulated EG5 ATPase activity (unknown origin) by pyruvate kinase/lactate dehydrogenase enzyme coupled photometric assay
T1 sequence (P52732 whole entry): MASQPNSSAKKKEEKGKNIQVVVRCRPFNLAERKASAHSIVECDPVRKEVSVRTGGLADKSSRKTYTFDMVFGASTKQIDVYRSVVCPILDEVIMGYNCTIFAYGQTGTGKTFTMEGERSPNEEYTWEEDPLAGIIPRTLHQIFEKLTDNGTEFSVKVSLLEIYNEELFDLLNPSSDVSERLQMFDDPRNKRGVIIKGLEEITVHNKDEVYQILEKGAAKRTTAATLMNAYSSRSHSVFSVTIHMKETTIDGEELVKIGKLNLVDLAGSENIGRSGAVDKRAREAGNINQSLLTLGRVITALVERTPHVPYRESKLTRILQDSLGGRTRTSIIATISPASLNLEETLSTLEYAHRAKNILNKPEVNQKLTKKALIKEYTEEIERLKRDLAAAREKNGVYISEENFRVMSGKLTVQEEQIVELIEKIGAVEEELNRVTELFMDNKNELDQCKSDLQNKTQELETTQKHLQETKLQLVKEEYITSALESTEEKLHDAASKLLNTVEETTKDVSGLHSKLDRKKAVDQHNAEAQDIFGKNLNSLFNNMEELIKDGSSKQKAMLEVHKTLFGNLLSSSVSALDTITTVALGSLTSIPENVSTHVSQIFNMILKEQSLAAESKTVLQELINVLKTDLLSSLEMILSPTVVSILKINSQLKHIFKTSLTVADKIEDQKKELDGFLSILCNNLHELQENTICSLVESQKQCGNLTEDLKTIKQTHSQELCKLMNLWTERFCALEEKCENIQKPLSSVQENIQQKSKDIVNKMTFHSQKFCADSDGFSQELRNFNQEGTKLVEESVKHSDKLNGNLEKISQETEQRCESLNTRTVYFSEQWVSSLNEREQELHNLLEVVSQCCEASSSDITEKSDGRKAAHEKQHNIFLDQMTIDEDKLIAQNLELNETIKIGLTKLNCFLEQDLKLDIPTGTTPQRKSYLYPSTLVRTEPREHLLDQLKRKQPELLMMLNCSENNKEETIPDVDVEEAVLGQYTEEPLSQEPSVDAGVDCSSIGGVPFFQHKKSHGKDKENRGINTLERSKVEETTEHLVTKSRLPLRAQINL

[2] = molecular target: T2, Kinesin-like protein KIF11 (Homo sapiens) (UniProt P52732); test: Inhibition of basal EG5 ATPase activity (unknown origin) by pyruvate kinase/lactate dehydrogenase enzyme coupled photometric assay
T2 sequence (whole entry): T1 sequence (P52732 whole entry)

[3] = molecular target: T1, Kinesin-like protein KIF11; test: Inhibition EG5 (unknown origin)

Row | Structure (SMILES) | IC50 [1] | inhibition [2] | IC50 ([1]; read-out: IC50) [µM] | IC50 [3] [µM]
1 | CC(=O)N1N=C(NC2=NC(=O)/C(=C/c3ccccc3[N+](=O)[O-])S2)SC1(C)c1ccccc1 (configuration not stated) | Active | – | – | –
2 | CC(=O)N1N=C(NC2=NC(=O)/C(=C/c3ccc(OCc4ccccc4)cc3)S2)SC1(C)c1ccccc1 (configuration not stated) | – | inactive | 17.2 | –
3 | COc1ccc(/C=C2\SC(NC3=NN(C(C)=O)C(C)(c4ccccc4)S3)=NC2=O)cc1OC (configuration not stated) | – | inactive | 60 to 112 | –
4 | CC(=O)N1N=C(NC2=NC(=O)/C(=C/c3ccc([N+](=O)[O-])cc3)S2)SC1(C)c1ccccc1 (configuration not stated) | – | inactive | 20.2 | –
5 | CC(=O)N1N=C(NC2=NC(=O)/C(=C/c3ccccc3)S2)SC1(C)c1ccccc1 (configuration not stated) | – | inactive | 62.1 | –
6 | COc1ccc(/C=C2\SC(NC3=NN(C(C)=O)C(C)(c4ccccc4)S3)=NC2=O)cc1 (configuration not stated) | – | inactive | 42.7 | –
7 | CC(=O)N1N=C(NC2=NC(=O)/C(=C/c3ccc(Cl)cc3)S2)SC1(C)c1ccccc1 (configuration not stated) | – | inactive | 106 | –
8 | COc1cccc(/C=C2\SC(NC3=NN(C(C)=O)C(C)(c4ccccc4)S3)=NC2=O)c1 (configuration not stated) | – | inactive | 51 | –
9 | COc1cccc(/C=C2\SC(NC3=NN(C(C)=O)C(C)(c4ccccc4)S3)=NC2=O)c1OC (configuration not stated) | – | inactive | 71.9 | –
10 | CC(=O)N1N=C(NC2=NC(=O)/C(=C/c3ccco3)S2)SC1(C)c1ccccc1 (configuration not stated) | – | inactive | 120 to 331 | –
11 | CC(=O)N1N=C(NC2=NC(=O)/C(=C/c3ccccc3Cl)S2)SC1(C)c1ccccc1 (configuration not stated) | – | inactive | 13.2 | –
12 | CC(=O)NC1=NN(C(C)=O)C(C)(c2ccccc2)S1 (configuration not stated) | – | – | 0.8 | –
13 | CC(=O)N1N=C(NC2=NC(=O)/C(=C/c3cccc(Cl)c3)S2)SC1(C)c1ccccc1 (configuration not stated) | – | inactive | 47.8 | –
14 | CC(=O)N1N=C(NC2=NC(=O)/C(=C/c3ccc(Br)cc3)S2)SC1(C)c1ccccc1 (configuration not stated) | – | inactive | 39.2 | –
15 | CC(=O)N1N=C(NC2=NC(=O)/C(=C/c3ccccn3)S2)SC1(C)c1ccccc1 (configuration not stated) | – | inactive | 120 | –
16 | CC(=O)N1N=C(NC2=NC(=O)/C(=C/c3ccc(N(C)C)cc3)S2)SC1(C)c1ccccc1 (configuration not stated) | – | inactive | 90 to 252 | –
17 | CC(=O)N1N=C(NC2=NC(=O)/C(=C/C=C/c3ccccc3)S2)SC1(C)c1ccccc1 (configuration not stated) | – | inactive | 75 to 248 | –
18 | CC1=C(C(=O)OC(C)C)C(c2ccc(Cl)cc2)n2c(s/c(=C\c3ccc(OCC(=O)O)cc3)c2=O)=N1 (configuration not stated) | – | – | – | 4.6
19 | CC(=O)N1N=C(NC2=NC(=O)/C(=C/c3ccc(C)cc3)S2)SC1(C)c1ccccc1 (configuration not stated) | – | inactive | 63.3 | –
20 | CC(=O)N1N=C(NC2=NC(=O)/C(=C/c3ccccc3F)S2)SC1(C)c1ccccc1 (configuration not stated) | – | inactive | 70 to 133 | –
21 | CC(=O)N1N=C(NC2=NC(=O)/C(=C/c3cccc([N+](=O)[O-])c3)S2)SC1(C)c1ccccc1 (configuration not stated) | – | inactive | 27.5 | –
22 | CCNCCS(=O)(=O)NC[C@@]1(c2ccccc2)SC(NC(=O)C(C)(C)C)=NN1C(=O)C(C)(C)C [LITRONESIB] | – | – | – | 0.007
23 | CC(=O)N1N=C(NC2=NC(=O)/C(=C/C=C/c3ccc(N(C)C)cc3)S2)SC1(C)c1ccccc1 (configuration not stated) | – | inactive | 129 | –
24 | CC(=O)C1=NN(c2cc(C)ccc2F)C[C@]1(CCCN(C)C)c1ccccc1 | – | – | – | 0.0002
25 | CC(=O)N1N=C(NC2=NC(=O)/C(=C/c3cccs3)S2)SC1(C)c1ccccc1 (configuration not stated) | – | inactive | 133 | –
26 | COc1ccc(/C=C/C=C2\SC(NC3=NN(C(C)=O)C(C)(c4ccccc4)S3)=NC2=O)cc1 (configuration not stated) | – | inactive | 90 to 414 | –
